# Assay results published in patent US20260258032A1, “TYROSINE KINASE 2 INHIBITORS AND USES THEREOF” (BIOGEN MA INC., priority 2022, published 2026).
# Structures can show the parent of a compound that is named as a salt.
# How the values were obtained:
# [1] = target: T1, JH2 domain of human Tyk2 (Homo sapiens, UniProt P29597); experiment: JH2 biochemical assay (TR-FRET probe displacement); assay type: binding; settings: JH2 biochemical assay
# T1 construct: 10×His-tagged TYK2 JH2 domain (amino acid 575-876)
# T1 sequence (P29597 575-876): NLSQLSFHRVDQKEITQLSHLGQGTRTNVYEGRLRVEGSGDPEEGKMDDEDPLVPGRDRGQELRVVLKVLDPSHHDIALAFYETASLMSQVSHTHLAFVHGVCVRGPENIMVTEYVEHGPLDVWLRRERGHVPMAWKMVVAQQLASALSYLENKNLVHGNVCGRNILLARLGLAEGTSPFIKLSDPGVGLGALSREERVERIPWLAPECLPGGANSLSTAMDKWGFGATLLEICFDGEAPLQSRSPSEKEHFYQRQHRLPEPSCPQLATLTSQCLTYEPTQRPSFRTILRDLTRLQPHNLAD
# How it was run: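 A probe-displacement TR-FRET readout: compounds, tested in 3-fold, 10-point dilutions starting at […], compete with 2 nM tracer for 2 nM His-tagged JH2 (residues 575-876) detected by 0.1 nM Tb-anti-His over 60 min. IC50 comes from 4-parameter fits of normalized 520/495 nm ratios.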
# [2] = tested on: Tyk2 kinase activity on STAT4; experiment: pSTAT4 cell assay (MSD, NK92 cells); assay type: cell-based; settings: compounds 1 hr, stimulated 15 minutes
# How it was run: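 Read-out: phospho-STAT in NK92 lysates, MSD format, anti-STAT4 antibodies. Cells were serum-starved, given compound for 1 hr (10 μM top, four-fold, 10 points) and IL2-stimulated (30 ng/mL, 15 min). Normalized percent activity vs log concentration, 4-parameter logistic fit gave IC50.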
SMILES,IC50 [1],IC50 [2]
"CC(=O)Nc1cc2c(cn1)C1(CC1)CN2c1cc(NC[C@@H]2CCO2)nc(C(C)(F)F)n1 [Example 163, (S)-N-(1′-(2-(1,1-difluoroethyl)-6-((oxetan-2-ylmethyl)amino)pyrimidin-4-yl)-1′,2′-dihydrospiro[cyclopropane-1,3′-pyrrolo[3,2-c]pyridin]-6′-yl)acetamide]",≤ 10 nM,10 to 100 nM
"CC(=O)Nc1cc2c(cn1)C1(CC1)CN2c1cc(NCCCF)nc(C(C)(F)F)n1 [Example 164, N-(1′-(2-(1,1-difluoroethyl)-6-((3-fluoropropyl)amino)pyrimidin-4-yl)-1′,2′-dihydrospiro[cyclopropane-1,3′-pyrrolo[3,2-c]pyridin]-6′-yl)acetamide trifluoroacetate]",≤ 10 nM,10 to 100 nM
"CO[C@@H](C)[C@H](C)Nc1cc(N2CC3(CC3)c3cnc(NC(C)=O)cc32)nc(C(C)(F)F)n1 [Example 165, N-(1′-(2-(1,1-difluoroethyl)-6-(((2S,3S)-3-methoxybutan-2-yl)amino)pyrimidin-4-yl)-1′,2′-dihydrospiro[cyclopropane-1,3′-pyrrolo[3,2-c]pyridin]-6′-yl)acetamide trifluoroacetate]",≤ 10 nM,10 to 100 nM
"CC(=O)Nc1cc2c(cn1)C1(CC1)CN2c1cc(NC2CSC2)nc(C(C)(F)F)n1 [Example 166, N-(1′-(2-(1,1-difluoroethyl)-6-(thietan-3-ylamino)pyrimidin-4-yl)-1′,2′-dihydrospiro[cyclopropane-1,3′-pyrrolo[3,2-c]pyridin]-6′-yl)acetamide trifluoroacetate]",≤ 10 nM,10 to 100 nM
"CCNc1cc(N2CC3(CC3)c3cnc(NC(C)=O)cc32)nc(C(C)(F)F)n1 [Example 167, N-(1′-(2-(1,1-difluoroethyl)-6-(ethylamino)pyrimidin-4-yl)-1′,2′-dihydrospiro[cyclopropane-1,3′-pyrrolo[3,2-c]pyridin]-6′-yl)acetamide trifluoroacetate]",≤ 10 nM,100 to 1000 nM
"CC(=O)Nc1cc2c(cn1)C1(CC1)CN2c1cc(N[C@H]2C[C@@H](F)C2)nc(C(C)(F)F)n1 [Example 168, N-(1′-(2-(1,1-difluoroethyl)-6-(((1s,3s)-3-fluorocyclobutyl)amino)pyrimidin-4-yl)-1′,2′-dihydrospiro[cyclopropane-1,3′-pyrrolo[3,2-c]pyridin]-6′-yl)acetamide trifluoroacetate]",10 to 100 nM,100 to 1000 nM
"CC(=O)Nc1cc2c(cn1)C1(CC1)CN2c1cc(NCC(C)F)nc(C(C)(F)F)n1 (stereo not drawn) [Example 169, N-(1′-(2-(1,1-difluoroethyl)-6-((2-fluoropropyl)amino)pyrimidin-4-yl)-1′,2′-dihydrospiro[cyclopropane-1,3′-pyrrolo[3,2-c]pyridin]-6′-yl)acetamide trifluoroacetate]",≤ 10 nM,10 to 100 nM
"CC(=O)Nc1cc2c(cn1)C1(CC1)CN2c1cc(NCCC(C)F)nc(C(C)(F)F)n1 (stereo not drawn) [Example 170, N-(1′-(2-(1,1-difluoroethyl)-6-((3-fluorobutyl)amino)pyrimidin-4-yl)-1′,2′-dihydrospiro[cyclopropane-1,3′-pyrrolo[3,2-c]pyridin]-6′-yl)acetamide trifluoroacetate]",≤ 10 nM,10 to 100 nM
"COC(C)CNc1cc(N2CC3(CC3)c3cnc(NC(C)=O)cc32)nc(C(C)(F)F)n1 (stereo not drawn) [Example 171, N-(1′-(2-(1,1-difluoroethyl)-6-((2-methoxypropyl)amino)pyrimidin-4-yl)-1′,2′-dihydrospiro[cyclopropane-1,3′-pyrrolo[3,2-c]pyridin]-6′-yl)acetamide trifluoroacetate]",≤ 10 nM,10 to 100 nM
"CO[C@H]1C[C@@H](Nc2cc(N3CC4(CC4)c4cnc(NC(C)=O)cc43)nc(C(C)(F)F)n2)C1 [Example 172, N-(1′-(2-(1,1-difluoroethyl)-6-(((1s,3s)-3-methoxycyclobutyl)amino)pyrimidin-4-yl)-1′,2′-dihydrospiro[cyclopropane-1,3′-pyrrolo[3,2-c]pyridin]-6′-yl)acetamide trifluoroacetate]",≤ 10 nM,10 to 100 nM
"COC1(C)CC1Nc1cc(N2CC3(CC3)c3cnc(NC(C)=O)cc32)nc(C(C)(F)F)n1 (stereo not drawn) [Example 173, N-(1′-(2-(1,1-difluoroethyl)-6-((2-methoxy-2-methylcyclopropyl)amino)pyrimidin-4-yl)-1′,2′-dihydrospiro[cyclopropane-1,3′-pyrrolo[3,2-c]pyridin]-6′-yl)acetamide trifluoroacetate]",≤ 10 nM,10 to 100 nM
"CC(=O)Nc1cc2c(cn1)C1(CC1)CN2c1cc(NCC2CCN2C)nc(C(C)(F)F)n1 (stereo not drawn) [Example 174, N-(1′-(2-(1,1-difluoroethyl)-6-(((1-methylazetidin-2-yl)methyl)amino)pyrimidin-4-yl)-1′,2′-dihydrospiro[cyclopropane-1,3′-pyrrolo[3,2-c]pyridin]-6′-yl)acetamide]",10 to 100 nM,≥ 1000 nM
"CC(=O)Nc1cc2c(cn1)C1(CC1)CN2c1cc(NC(C)C2COC2)nc(C(C)(F)F)n1 (stereo not drawn) [Example 175, N-(1′-(2-(1,1-difluoroethyl)-6-((1-(oxetan-3-yl)ethyl)amino)pyrimidin-4-yl)-1′,2′-dihydrospiro[cyclopropane-1,3′-pyrrolo[3,2-c]pyridin]-6′-yl)acetamide]",≤ 10 nM,100 to 1000 nM
"CC(=O)Nc1cc2c(cn1)C1(CC1)CN2c1cc(NC2CC23CC3)nc(C(C)(F)F)n1 (stereo not drawn) [Example 176, N-(1′-(2-(1,1-difluoroethyl)-6-(spiro[2.2]pentan-1-ylamino)pyrimidin-4-yl)-1′,2′-dihydrospiro[cyclopropane-1,3′-pyrrolo[3,2-c]pyridin]-6′-yl)acetamide trifluoroacetate]",≤ 10 nM,10 to 100 nM
"COC1CC1Nc1cc(N2CC3(CC3)c3cnc(NC(C)=O)cc32)nc(C(C)(F)F)n1 (stereo not drawn) [Example 177, N-(1′-(2-(1,1-difluoroethyl)-6-((2-methoxycyclopropyl)amino)pyrimidin-4-yl)-1′,2′-dihydrospiro[cyclopropane-1,3′-pyrrolo[3,2-c]pyridin]-6′-yl)acetamide]",≤ 10 nM,10 to 100 nM
"COCC(C)Nc1cc(N2CC3(CC3)c3cnc(NC(C)=O)cc32)nc(C(C)(F)F)n1 (stereo not drawn) [Example 178, N-(1′-(2-(1,1-difluoroethyl)-6-((1-methoxypropan-2-yl)amino)pyrimidin-4-yl)-1′,2′-dihydrospiro[cyclopropane-1,3′-pyrrolo[3,2-c]pyridin]-6′-yl)acetamide trifluoroacetate]",≤ 10 nM,10 to 100 nM
"CC(=O)Nc1cc2c(cn1)C1(CC1)CN2c1cc(NC2CCOC2)nc(C(C)(F)F)n1 (stereo not drawn) [Example 179, N-(1′-(2-(1,1-difluoroethyl)-6-((tetrahydrofuran-3-yl)amino)pyrimidin-4-yl)-1′,2′-dihydrospiro[cyclopropane-1,3′-pyrrolo[3,2-c]pyridin]-6′-yl)acetamide trifluoroacetate]",≤ 10 nM,10 to 100 nM
"CC(=O)Nc1cc2c(cn1)C1(CC1)CN2c1cc(NCC(C)N(C)C)nc(C(C)(F)F)n1 (stereo not drawn) [Example 180, N-(1′-(2-(1,1-difluoroethyl)-6-((2-(dimethylamino)propyl)amino)pyrimidin-4-yl)-1′,2′-dihydrospiro[cyclopropane-1,3′-pyrrolo[3,2-c]pyridin]-6′-yl)acetamide trifluoroacetate]",10 to 100 nM,100 to 1000 nM
